Results published in ChEMBL document CHEMBL1156113, “Synthesis of new sugar derivatives and evaluation of their antibacterial activities against Mycobacterium tuberculosis” (Bioorg Med Chem Lett, 2009).
≈ marks a conversion by molar mass, not a printed value.

Experiments:
[1] = tested on: Mycobacterium tuberculosis; test: Antituberculosis activity against Mycobacterium tuberculosis H37Rv by broth dilution method; assay type: functional
[2] = microbe, parasite or virus in culture; assay type: functional, Mycobacterium bovis BCG str. Tokyo 172; details: Mycobacterium tuberculosis variant bovis BCG
Description: (§1) Antibacterial activity against Mycobacterium bovis BCG str. Tokyo 172 by broth dilution method

Mycobacterium avium [3] = test: Antibacterial activity against Mycobacterium avium 724S by broth dilution method; assay type: functional
Mycobacterium avium [4] = test: Antibacterial activity against Mycobacterium avium SmO by broth dilution method; assay type: functional
[5] = tested on: Mycolicibacterium smegmatis; test: Antibacterial activity against Mycobacterium smegmatis by broth dilution method; assay type: functional
Staphylococcus aureus [6] = test: Antibacterial activity against Staphylococcus aureus by broth dilution method; assay type: functional
Escherichia coli [7] = test: Antibacterial activity against Escherichia coli by broth dilution method; assay type: functional
[8] = Selectivity for Mycobacterium tuberculosis H37Rv over human THP1 cells; design: species or system THP-1; reference not given here
[9] = Selectivity for Mycobacterium tuberculosis H37Rv over human A549 cells; design: reference not given here
[10] = Selectivity for Mycobacterium tuberculosis H37Rv over human MRC5 cells; design: reference not given here
[11] = tested on: Mycobacterium tuberculosis; test: Antimycobacterial activity against drug-susceptive Mycobacterium tuberculosis isolate A-1-1 by agar proportion method; assay type: functional
[12] = tested on: Mycobacterium tuberculosis; test: Antimycobacterial activity against drug-susceptive Mycobacterium tuberculosis isolate A-1-2 by agar proportion method; assay type: functional
[13] = tested on: Mycobacterium tuberculosis; test: Antimycobacterial activity against drug-susceptive Mycobacterium tuberculosis isolate A-3-5 by agar proportion method; assay type: functional
[14] = tested on: Mycobacterium tuberculosis; test: Antimycobacterial activity against drug-susceptive Mycobacterium tuberculosis isolate A-3-11 by agar proportion method; assay type: functional
[15] = tested on: Mycobacterium tuberculosis; test: Antimycobacterial activity against drug-susceptive Mycobacterium tuberculosis isolate A-3-12 by agar proportion method; assay type: functional
[16] = tested on: Mycobacterium tuberculosis; test: Antimycobacterial activity against drug-susceptive Mycobacterium tuberculosis isolate A-3-13 by agar proportion method; assay type: functional
[17] = tested on: Mycobacterium tuberculosis; test: Antimycobacterial activity against drug-susceptive Mycobacterium tuberculosis isolate A-3-15 by agar proportion method; assay type: functional
[18] = tested on: Mycobacterium tuberculosis; test: Antimycobacterial activity against drug-susceptive Mycobacterium tuberculosis isolate A-3-16 by agar proportion method; assay type: functional
[19] = tested on: Mycobacterium tuberculosis; test: Antimycobacterial activity against drug-susceptive Mycobacterium tuberculosis isolate A-3-20 by agar proportion method; assay type: functional
[20] = tested on: Mycobacterium tuberculosis; test: Antimycobacterial activity against drug-susceptive Mycobacterium tuberculosis isolate A-3-21 by agar proportion method; assay type: functional
[21] = tested on: Mycobacterium tuberculosis; test: Antimycobacterial activity against drug-susceptive Mycobacterium tuberculosis isolate A-3-22 by agar proportion method; assay type: functional
[22] = tested on: Mycobacterium tuberculosis; test: Antimycobacterial activity against drug-susceptive Mycobacterium tuberculosis isolate A-3-9 by agar proportion method; assay type: functional
[23] = tested on: Mycobacterium tuberculosis; test: Antimycobacterial activity against drug-susceptive Mycobacterium tuberculosis isolate A-1-3 by agar proportion method; assay type: functional
[24] = tested on: Mycobacterium tuberculosis; test: Antimycobacterial activity against drug-susceptive Mycobacterium tuberculosis isolate A-2-5 by agar proportion method; assay type: functional
[25] = tested on: Mycobacterium tuberculosis; test: Antimycobacterial activity against drug-susceptive Mycobacterium tuberculosis isolate A-3-1 by agar proportion method; assay type: functional
[26] = tested on: Mycobacterium tuberculosis; test: Antimycobacterial activity against drug-susceptive Mycobacterium tuberculosis isolate A-3-2 by agar proportion method; assay type: functional
[27] = tested on: Mycobacterium tuberculosis; test: Antimycobacterial activity against drug-susceptive Mycobacterium tuberculosis isolate A-3-6 by agar proportion method; assay type: functional
[28] = tested on: Mycobacterium tuberculosis; test: Antimycobacterial activity against drug-susceptive Mycobacterium tuberculosis isolate A-3-17 by agar proportion method; assay type: functional
[29] = tested on: Mycobacterium tuberculosis; test: Antimycobacterial activity against drug-susceptive Mycobacterium tuberculosis isolate A-3-19 by agar proportion method; assay type: functional
[30] = tested on: Mycobacterium tuberculosis; details: H37Rv
[31] = tested on: Mycobacterium bovis BCG str. Tokyo 172
Description: as §1

Mycobacterium avium [32] = details: 724S
Mycobacterium avium [33] = details: SmO
[34] = tested on: Mycolicibacterium smegmatis
Staphylococcus aureus [35] = tested on: Staphylococcus aureus
Escherichia coli [36] = tested on: Escherichia coli

| Compound | MIC [1] [µg/mL] | MIC [2] [µg/mL] | MIC (Mycobacterium avium [3]) [µg/mL] | MIC (Mycobacterium avium [4]) [µg/mL] | MIC [5] [µg/mL] | MIC (Staphylococcus aureus [6]) [µg/mL] | MIC (Escherichia coli [7]) [µg/mL] | Ratio [8] | Ratio [9] | Ratio [10] | also measured |
| --- | --- | --- | --- | --- | --- | --- | --- | --- | --- | --- | --- |
| CC(=O)N[C@@H]1[C@@H](O)[C@H](O)[C@@H](CSC(=S)N(C)C)O[C@H]1SC(=S)N(C)C | 25 (≈ 58.5 µM) | > 100 | > 100 | > 100 | > 100 | > 100 | > 100 |  |  |  |  |
| CC(=O)N[C@@H]1[C@@H](OC(C)=O)[C@H](OC(C)=O)[C@@H](COC(C)=O)O[C@H]1SC(=S)N(C)C | > 100 | > 100 | > 100 | > 100 | > 100 | > 100 | > 100 |  |  |  |  |
| CC(=O)N[C@@H]1[C@@H](O)[C@H](O)[C@@H](CO)O[C@H]1SC(=S)N(C)C | 25 (≈ 77.1 µM) | 31.3 (≈ 96.5 µM) | > 100 | > 100 | > 100 | > 100 | > 100 | 242 | 188 | 28 | MIC [11]: 6.25 µg/mL (≈ 19.3 µM); MIC [12]: 6.25 µg/mL (≈ 19.3 µM); MIC [13]: 6.25 µg/mL (≈ 19.3 µM); MIC [14]: 6.25 µg/mL (≈ 19.3 µM); MIC [15]: 6.25 µg/mL (≈ 19.3 µM); MIC [16]: 6.25 µg/mL (≈ 19.3 µM); MIC [17]: 6.25 µg/mL (≈ 19.3 µM); MIC [18]: 6.25 µg/mL (≈ 19.3 µM); MIC [19]: 6.25 µg/mL (≈ 19.3 µM); MIC [20]: 6.25 µg/mL (≈ 19.3 µM); MIC [21]: 6.25 µg/mL (≈ 19.3 µM); MIC [22]: 6.25 µg/mL (≈ 19.3 µM); MIC [23]: 6.25 µg/mL (≈ 19.3 µM); MIC [24]: 6.25 µg/mL (≈ 19.3 µM); MIC [25]: 6.25 µg/mL (≈ 19.3 µM); MIC [26]: 6.25 µg/mL (≈ 19.3 µM); MIC [27]: 6.25 µg/mL (≈ 19.3 µM); MIC [28]: 12.5 µg/mL (≈ 38.5 µM); MIC [29]: 6.25 µg/mL (≈ 19.3 µM) |
| CC(=O)N[C@H]1[C@H](OC(C)=O)O[C@H](COC(C)=O)[C@@H](OC(C)=O)[C@@H]1OC(C)=O | > 100 | > 100 |  |  | > 100 |  |  |  |  |  |  |
| CC(=O)N[C@@H]1[C@@H](O)[C@@H](O)[C@@H](CO)O[C@H]1SC(=S)N(C)C | 12.5 (≈ 38.5 µM) | 25 (≈ 77.1 µM) | > 100 | > 100 | > 100 | > 100 | > 100 |  |  |  |  |
| CC(=O)N[C@H]1[C@@H](O)[C@H](O)[C@@H](CO)O[C@@H]1SC(=S)N(C)C | > 100 | > 100 | > 100 | > 100 | > 100 | > 100 | > 100 |  |  |  |  |
| NCC[C@H](O)C(=O)N[C@@H]1C[C@H](N)[C@@H](O[C@H]2O[C@H](CN)[C@@H](O)[C@H](O)[C@H]2O)[C@H](O)[C@H]1O[C@H]1O[C@H](CO)[C@@H](O)[C@H](N)[C@H]1O [AMIKACIN] | 1.75 (≈ 2.99 µM) | 0.78 (≈ 1.33 µM) | > 100 | 1.56 (≈ 2.66 µM) | 1.25 (≈ 2.13 µM) | 100 (≈ 171 µM) | 50 (≈ 85.4 µM) |  |  |  |  |
| Nc1ccc(C(=O)O)c(O)c1 [AMINOSALICYLIC ACID] | 0.16 (≈ 1.04 µM) | 50 (≈ 327 µM) | 100 (≈ 653 µM) | 100 (≈ 653 µM) | 1000 (≈ 6530 µM) | > 100 | > 100 |  |  |  |  |
| CNC.Cl [DIMETHYLAMINE HCL] | > 100 | > 100 |  |  | > 100 |  |  |  |  |  |  |
| CNC [DIMETHYLAMINE] | > 100 | > 100 |  |  | > 100 |  |  |  |  |  |  |
| CC[C@@H](CO)NCCN[C@@H](CC)CO [ETHAMBUTOL] | 2.5 (≈ 12.2 µM) | 1.5 (≈ 7.34 µM) | 3.13 (≈ 15.3 µM) | 1.56 (≈ 7.64 µM) | 12.5 (≈ 61.2 µM) | > 100 | > 100 | 916 | 1434 | 111 |  |
| NNC(=O)c1ccncc1 [ISONIAZID] | 0.04 (≈ 0.292 µM) | 0.04 (≈ 0.292 µM) | 50 (≈ 365 µM) | 3.13 (≈ 22.8 µM) | 6.25 (≈ 45.6 µM) | > 100 | > 100 | 53613 | 77277 | 7325 |  |
| NC[C@H]1O[C@H](O[C@H]2[C@H](O)[C@@H](O[C@H]3O[C@H](CO)[C@@H](O)[C@H](N)[C@H]3O)[C@H](N)C[C@@H]2N)[C@H](O)[C@@H](O)[C@@H]1O [KANAMYCIN] | 1.56 (≈ 3.22 µM) | 0.3 (≈ 0.619 µM) | > 100 | 1.56 (≈ 3.22 µM) | 3.13 (≈ 6.46 µM) | 12.5 (≈ 25.8 µM) | 12.5 (≈ 25.8 µM) |  |  |  |  |
| CO[C@H]1/C=C/O[C@@]2(C)Oc3c(C)c(O)c4c(O)c(c(/C=N/N5CCN(C)CC5)c(O)c4c3C2=O)NC(=O)/C(C)=C\C=C\[C@H](C)[C@H](O)[C@@H](C)[C@@H](O)[C@@H](C)[C@H](OC(C)=O)[C@@H]1C [RIFAMPIN] | 0.004 (≈ 0.00486 µM) | 0.004 (≈ 0.00486 µM) | < 0.05 | 0.004 (≈ 0.00486 µM) | 1.56 (≈ 1.9 µM) | 0.002 (≈ 0.00243 µM) | 50 (≈ 60.8 µM) | 16256 | 44510 | 16250 |  |
| CN(C)C(=S)[S-].[Na+] [SODIUM DIMETHYLCARBAMODITHIOATE] | 0.78 | 0.78 |  |  | > 100 | > 100 | > 100 | 88 | 318 | 14 |  |
| CN[C@@H]1[C@H](O[C@H]2[C@H](O[C@H]3[C@H](O)[C@@H](O)[C@H](N=C(N)N)[C@@H](O)[C@@H]3N=C(N)N)O[C@@H](C)[C@]2(O)C=O)O[C@@H](CO)[C@H](O)[C@H]1O [STREPTOMYCIN] | 0.39 (≈ 0.671 µM) | 0.2 (≈ 0.344 µM) | 0.39 (≈ 0.671 µM) | 0.39 (≈ 0.671 µM) | 0.39 (≈ 0.671 µM) | 50 (≈ 86 µM) | 50 (≈ 86 µM) | 18367 | 32154 | 4282 |  |
| GENTAMICIN |  |  |  |  |  |  |  |  |  |  | MIC [30]: 3.13 µg/mL; MIC [31]: 1.56 µg/mL; MIC (Mycobacterium avium [32]): 25 µg/mL; MIC (Mycobacterium avium [33]): 1.56 µg/mL; MIC [34]: 1.56 µg/mL; MIC (Staphylococcus aureus [35]): 25 µg/mL; MIC (Escherichia coli [36]): 6.25 µg/mL |
